26 molecules from US20260306460A1, “COMPOSITION FOR REMOVING AND INHIBITING SENESCENT CELLS, AND USES THEREOF” (LIFECEUTIX CO., LTD., priority 2023, published 2026) can be followed below.

“Also recorded” adds a separate entry of the source.

One series relates to senescent human cells. The series can be described thus: Viability of doxorubicin-induced senescent human cells (CellTiter-Glo), Example 11. The conditions noted are these: excessive concentrations (1 or 20 mM). Format: cell-based.
The test system of series [1] is carbon tetrachloride-induced liver fibrosis mice. Briefly: Carbon tetrachloride-induced liver fibrosis mice, Example 31, Table 57. The conditions noted are these: CCl4-induced liver fibrosis mice, untreated = 100%. Format: in vivo, mouse. In short, it runs like this: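 Mice with induced hepatic fibrosis received either the test compound or, as controls, an equal volume of vehicle solution alone. Once dosing ended, liver tissue was harvested and total RNA was isolated. cDNA was synthesized from this RNA, and quantitative RT-PCR was run on it to measure hepatic mRNA levels of the fibrosis- and senescence-related genes.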

For a further series, the system named is naturally aged mice. The series can be described thus: Anti-aging evaluation in naturally aged mice, Example 31, Table 55.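 On all read-outs here: Vehicle-dosed control mice received solution alone at matching volume, values compare test-compound-treated aged mice against that control.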 It is filed as in vivo, mouse. The conditions noted are these: for Heart Sur2a mRNA / Joint Col2a1 mRNA / Skin Col1a1 mRNA / Skin SDF1 mRNA: untreated = 1.0; for Muscle Mass: untreated 0.64 g; for Fat Mass: untreated 0.82 g; for Cataract incidence: untreated 83%.

Series [2] deals with HMGN1 secreted from senescent A549 cells. The series can be described thus: HMGN1 secretion (ELISA) from senescent A549 cancer cells, Example 12.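 Further: A549 cells made senescent by doxorubicin exposure, with DMSO-treated cells serving as the non-senescent control.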 Format: cell-based, human. The conditions noted are these: senescent untreated = 100%; 30 μM; 90 μM for LX-305, 905, 1302, 1601, 1603, 2003, 2702, 2901, 3106; 270 μM for LX-1103, 2005, 2007.
Experimental: Cells were treated with doxorubicin or control (DMSO) and cultured.
In another series the test system is senescent foreskin cells. Briefly: Survival of senescent human cells treated with supernatant (secreted fluid) from death-induced cells, Example 13. It is filed as cell-based. The conditions noted are these: for Survival: Table 8, supernatant from dying senescent cells treated at 30, 90 or 270 μM (as Example 11), senescent treated cells.
The subject of series [3] is bleomycin-induced pulmonary fibrosis mice. The series can be described thus: Bleomycin-induced pulmonary fibrosis mice, Example 31, Table 56. It is filed as in vivo, mouse. The conditions noted are these: untreated = 100%. In short, it runs like this:
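After treatment with test compound or vehicle alone, lungs of bleomycin-induced pulmonary fibrosis mice were harvested. Total RNA extracted and gene expression quantified by qRT-PCR.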

Series [4] deals with naturally aged C57BL6J mice. Format: in vivo, mouse. The conditions noted are these: mouse, in vivo.
Another series deals with senescent A549 cells. The series can be described thus: Viability of senescent A549 cells (CellTiter-Glo), Example 18, Table 15. The conditions noted are these: Homo sapiens, A549, read-out: Survival (%).
For the next series, the system named is senescent cells. Briefly: Viability of senescent cells (CellTiter-Glo), Example 17, Table 13. The conditions noted are these: Homo sapiens, read-out: Survival (%).

Experimental for senescent cells: Cells induced to undergo senescence by doxorubicin treatment were treated with test compound at designated concentrations and measured using the CellTiter-Glo Luminescent Cell Viability Assay (Promega).

On to `OO` [H2O2], for which the “removal of senescent cells” value in the series with senescent human cells is on record as “hardly removed”.
`CC(=O)N[C@@H](Cc1c[nH]c2ccccc12)C(=O)N[C@@H](CCC(=O)C=[N+]=[N-])C(=O)OC(C)C` [LX-3201, Sirpiglenastat]: in series [1], the “Liver p16 mRNA” value is given as 71 (±9.4) % and the “Col1a1 mRNA” value was 82 (±8.2) %. Moreover, in the series with naturally aged mice (untreated = 100%), the “Femur Ctsk mRNA” value turned out to be 80%, the “Liver IL6 mRNA” value stood at 71%, the “Liver MMP3 mRNA” value is on record as 64% and the “Liver p16 mRNA” value was 80%. Also, in the series on naturally aged mice (untreated = 100%), the “Open Field Test Time in Center” value turned out to be 171%. Further, in the series with naturally aged mice, the “Heart Sur2a mRNA” value is 2.1 fold, the “Joint Col2a1 mRNA” value is 1.7 fold, the “Skin Col1a1 mRNA” value was 1.6 Fold and the “Skin SDF1 mRNA” value stood at 2.0 fold. For the same molecule, in the series with naturally aged mice, the “Muscle Mass” value is recorded as 0.71 g, the “Fat Mass” value is recorded as 1.06 g and the Cataract incidence was 76%. The “Kidney Agtr1a mRNA” value in the series on naturally aged mice (kidney, untreated = 100%) turned out to be 78%. The molecule further registered an HMGN1 in [2] of 309%. In the series with senescent foreskin cells, this molecule registered a Survival of 55.2. For the same molecule, in series [3], the “Lung p16 mRNA” value is given as 77 (±5.9) % and the “Col1a1 mRNA” value is 73 (±3.8) %.
For the molecule `CC(O)[C@]1(C)C(=O)C(C#N)=C[C@]2(C)C3=CC(=O)[C@]45OC(=O)[C@@]6(CCC(C)(C)C[C@H]64)CC[C@@]5(C)[C@]3(C)CC[C@@H]12` (some centres unmarked) [LX-2501], the wound/damage healing improvement entry in series [4] was “damage treatment and recovery”.
Same read-out and setting: the entry for `Cc1noc([C@]23CCC(C)(C)C[C@H]2[C@H]2C(=O)C=C4[C@@]5(C)C=C(C#N)C(=O)C(C)(C)[C@@H]5CC[C@@]4(C)[C@]2(C)CC3)n1` [LX-2401] is “damage treatment and recovery”; for `C[C@@H]1C(=O)C(C#N)=C[C@]2(c3ccccc3)c3c(c(-c4cncnc4)nn3C)CC[C@@H]12` [LX-2408] it is “damage treatment and recovery”.
In the case of `CC1(C)CC[C@]2(CO)CC[C@@]3(C)[C@]4(C)CC[C@H]5C(C)(C)C(=O)C(C#N)=C[C@]5(C)C4=CC(=O)[C@]3(O)C2C1` (some centres unmarked) [LX-2405], the wound/damage healing improvement entry in series [4] is “damage treatment and recovery”.
Take `C[C@@H]1C(=O)C(C#N)=C[C@]2(C)c3nc(CCO)n(-c4ccccc4)c3CC[C@@H]12` [LX-2409]: the wound/damage healing improvement entry in [4] was “damage treatment and recovery”.
As for `CC1(C)C(=O)C(C#N)=C[C@]2(C)C3=CC(=O)[C@@H]4[C@@H]5C[C@@](C)(C(=O)NCCc6c[nH]c7ccccc67)CC[C@]5(C)CC[C@@]4(C)[C@]3(C)CCC12` (some centres unmarked) [LX-2517, Soloxolone tryptamide], the wound/damage healing improvement entry in [4] was “damage treatment and recovery”.
In the case of `CC1(C)CC[C@]2(C(N)=O)CC[C@@]3(C)[C@]4(C)CC[C@H]5C(C)(C)C(=O)C(C#N)=C[C@]5(C)C4=CC(=O)[C@]3(O)[C@@H]2C1` [LX-2406], in series [4], the wound/damage healing improvement result is “damage treatment and recovery”.
For the molecule `C[C@]12C=C(C#N)C(=O)C3(CC=CC3)C1=CC[C@@H]1[C@@H]2CC[C@]2(C)C(=O)CC[C@@H]12` [LX-2308], in [4], the wound/damage healing improvement result was “damage treatment and recovery”.
On to `C[C@@H]1C(=O)[C@]2(C#N)O[C@@H]2[C@]2(C)C3=CC(=O)[C@@H]4[C@@H]5CC(C)(C)CC[C@]5(NC(=O)C(C)(F)F)CC[C@@]4(C)[C@]3(C)CC[C@@H]12` [LX-2319], for which the wound/damage healing improvement result in series [4] is “damage treatment and recovery”.
Regarding `C=C(C)[C@@H]1CC[C@]2(C)CC[C@]3(C)[C@H](CC[C@@H]4[C@@]5(C)CC[C@H](O)C(C)(C)[C@@H]5CC[C@]43C)[C@@H]12` [LX-5433, Lupeol], in the series with senescent A549 cells, the viability at 1.1 µM is 97.8%, the viability at 10 µM worked out at 76.5%, the viability at 30 µM came out at 64.7% and the viability at 90 µM was found to be 19.3%. Moreover, in the series on senescent cells, the viability at 1.1 µM came out at 108%, the viability at 10 µM was found to be 71.1%, the viability at 30 µM is 51.8% and the viability at 90 µM came to 2.4%. Also, the wound/damage healing improvement result in [4] is “damage treatment and recovery”.
In the case of `CC1(C)CC[C@]2(C(=O)NO)CC[C@]3(C)[C@H](C(=O)C[C@@H]4[C@@]5(C)C=C(C#N)C(=O)C(C)(C)[C@@H]5CC[C@]43C)[C@@H]2C1` [LX-2309], the wound/damage healing improvement result in series [4] was “damage treatment and recovery”.
With `O=c1c2ccccc2[se]n1CCn1[se]c2ccccc2c1=O` [LX-112, 1,2-[bis(1,2-benzisoselenazolone-3 (2H)-ketone)]ethane], the “death of senescent cells by medium supernatant” value with senescent foreskin cells (supernatants from proliferating and senescent death-induced cells) is on record as “selectively induced the death of senescent cells; also recorded: same results”.
Take `COc1nc(-c2cccnc2)nc2c1CC[C@H]1[C@H](C)C(=O)C(C#N)=C[C@]21C` [LX-2315]: the wound/damage healing improvement result in [4] is “damage treatment and recovery”.
For the molecule `CC1(C)CC[C@]2(C(=O)NCC(F)(F)F)CC[C@]3(C)[C@H](C(=O)C[C@@H]4[C@@]5(C)C=C(C#N)C(=O)C(C)(C)[C@@H]5CC[C@]43C)[C@@H]2C1` [LX-2302, Dihydro-CDDO-Trifluoroethyl Amide], in series [4], the wound/damage healing improvement entry was “damage treatment and recovery”.
For `CCC(=O)NC[C@]12CCC(C)(C)C[C@H]1[C@H]1C(=O)C=C3[C@@]4(C)C=C(C#N)C(=O)C(C)(C)[C@@H]4CC[C@@]3(C)[C@]1(C)CC2` [LX-2510], the wound/damage healing improvement result in series [4] is “damage treatment and recovery”.
In the case of `C[C@H]1C(=O)C(C#N)=C[C@@]2(C)c3c(c(-c4ccccc4)nn3-c3ccc(-c4cccc(CO)c4)cc3)CC[C@H]12` [LX-2505], the wound/damage healing improvement result in series [4] is “damage treatment and recovery”.
Same read-out and setting: the entry for `CC1(C)CC[C@]2(NS(C)(=O)=O)CC[C@]3(C)[C@H](C(=O)C[C@@H]4[C@@]5(C)C=C(C#N)C(=O)C(C)(C)[C@@H]5CC[C@]43C)[C@@H]2C1` [LX-2306] is “damage treatment and recovery”.
In the case of `COC(=O)C[C@]12CCC(C)(C)C[C@H]1[C@H]1C(=O)C[C@@H]3[C@@]4(C)C=C(C#N)C(=O)C(C)(C)[C@@H]4CC[C@@]3(C)[C@]1(C)CC2` [LX-2307], the wound/damage healing improvement result in series [4] is “damage treatment and recovery”.
In the case of `C[C@@H]1C(=O)C(C#N)=C[C@]2(C)c3nn(C)c(-c4ccccc4)c3CC[C@@H]12` [LX-2312], the wound/damage healing improvement result in [4] is “damage treatment and recovery”.
On the same count and under the same terms, the entry for `CNC(=O)CC[C@]12CCC(C)(C)C[C@H]1[C@H]1C(=O)C=C3[C@@]4(C)C=C(C#N)C(=O)C(C)(C)[C@@H]4CC[C@@]3(C)[C@]1(C)CC2` [LX-2403] is “damage treatment and recovery”.
For the molecule `C[C@@H]1[C@H]2[C@H]3C(=O)C=C4[C@@]5(C)C=C(C#N)C(=O)C(C)(C)[C@@H]5CC[C@@]4(C)[C@]3(C)CC[C@@]2(CO)CC[C@H]1C` [LX-2512], in series [4], the wound/damage healing improvement entry was “damage treatment and recovery”.
Same read-out and setting: as for `C[C@@H]1C(=O)C(C#N)=C[C@]2(C)C3=CC(=O)[C@@H]4[C@@H]5CC(C)(C)CC[C@]5(c5nnc(CF)o5)CC[C@@]4(C)[C@]3(C)CC[C@@H]12` [LX-2507], the entry is “damage treatment and recovery”.
Consider `CC(=O)N[C@@H](CS)C(=O)O` [NAC, N-acetyl cysteine], for which the “removal of senescent cells” value with senescent human cells is on record as “hardly removed”.
Turning to `COc1cc(OC)cc(N(CCNC(C)C)c2ccc3ncc(-c4cnn(C)c4)nc3c2)c1` [LX-1903, Erdafitinib], in series [1], the “Liver p16 mRNA” value was 67 (±9.2) % and the “Col1a1 mRNA” value is on record as 62 (±6.9) %. For the same molecule, in the series with naturally aged mice (untreated = 100%), the “Femur Ctsk mRNA” value is 77%, the “Liver IL6 mRNA” value was 58%, the “Liver MMP3 mRNA” value was found to be 75% and the “Liver p16 mRNA” value stood at 69%. Further, in the series with naturally aged mice (untreated = 100%), the “Open Field Test Time in Center” value stood at 161%. In the series on naturally aged mice, the “Heart Sur2a mRNA” value is recorded as 1.4 fold, the “Joint Col2a1 mRNA” value stood at 1.7 fold, the “Skin Col1a1 mRNA” value was determined as 1.2 Fold and the “Skin SDF1 mRNA” value is 1.4 fold. Besides, in the series on naturally aged mice, the “Muscle Mass” value is on record as 0.69 g, the “Fat Mass” value was found to be 0.97 g and the Cataract incidence came out at 79%. In the series with senescent foreskin cells, the Survival was found to be 62.8. In series [3], the “Lung p16 mRNA” value is recorded as 73 (±6.6) % and the “Col1a1 mRNA” value is listed as 70 (±9.3) %.
